Data on three compounds can be found in ChEMBL document CHEMBL1127221, “The design of a dipeptide library for screening at peptide receptor sites” (Bioorg Med Chem Lett, 1993).

In assay [1] the target is Angiotensin-converting enzyme (Homo sapiens, UniProt P12821). Kind of assay: Inhibitory activity against Angiotensin I converting enzyme.
Assay [2] addresses T1, Cholecystokinin receptor type A (Homo sapiens, UniProt P32238).
T1 sequence (P32238 whole entry): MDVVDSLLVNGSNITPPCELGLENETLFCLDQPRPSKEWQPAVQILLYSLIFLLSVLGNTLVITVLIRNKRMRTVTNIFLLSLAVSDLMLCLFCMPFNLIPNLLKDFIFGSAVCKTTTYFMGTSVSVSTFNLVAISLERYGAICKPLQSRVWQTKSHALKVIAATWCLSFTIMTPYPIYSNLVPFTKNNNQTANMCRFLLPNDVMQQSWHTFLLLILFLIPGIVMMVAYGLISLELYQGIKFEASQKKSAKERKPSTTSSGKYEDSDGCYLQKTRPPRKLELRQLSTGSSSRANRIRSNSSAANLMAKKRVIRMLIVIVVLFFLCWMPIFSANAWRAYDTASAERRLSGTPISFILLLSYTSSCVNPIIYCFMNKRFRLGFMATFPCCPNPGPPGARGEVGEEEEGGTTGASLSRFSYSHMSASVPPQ
Kind of assay: Inhibitory activity against CCK-A receptor.

Assay [3] has as its target T2, Gastrin/cholecystokinin type B receptor (Homo sapiens, UniProt P32239).
T2 sequence (P32239 whole entry): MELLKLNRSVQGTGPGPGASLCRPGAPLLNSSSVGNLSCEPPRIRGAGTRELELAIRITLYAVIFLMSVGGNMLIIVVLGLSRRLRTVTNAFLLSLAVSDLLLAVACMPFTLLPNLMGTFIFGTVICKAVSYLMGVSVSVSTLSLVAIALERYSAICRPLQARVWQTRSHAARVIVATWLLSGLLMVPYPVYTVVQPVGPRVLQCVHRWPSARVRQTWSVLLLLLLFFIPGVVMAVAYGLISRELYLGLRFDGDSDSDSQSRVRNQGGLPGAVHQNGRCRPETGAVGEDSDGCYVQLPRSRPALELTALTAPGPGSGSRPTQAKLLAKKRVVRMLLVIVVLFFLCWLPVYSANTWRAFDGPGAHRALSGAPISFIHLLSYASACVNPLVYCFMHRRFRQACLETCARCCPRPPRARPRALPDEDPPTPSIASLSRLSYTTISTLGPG
Kind of assay: Inhibitory activity against Cholecystokinin type B receptor.

Angiotensin-converting enzyme, sequence (P12821 whole entry): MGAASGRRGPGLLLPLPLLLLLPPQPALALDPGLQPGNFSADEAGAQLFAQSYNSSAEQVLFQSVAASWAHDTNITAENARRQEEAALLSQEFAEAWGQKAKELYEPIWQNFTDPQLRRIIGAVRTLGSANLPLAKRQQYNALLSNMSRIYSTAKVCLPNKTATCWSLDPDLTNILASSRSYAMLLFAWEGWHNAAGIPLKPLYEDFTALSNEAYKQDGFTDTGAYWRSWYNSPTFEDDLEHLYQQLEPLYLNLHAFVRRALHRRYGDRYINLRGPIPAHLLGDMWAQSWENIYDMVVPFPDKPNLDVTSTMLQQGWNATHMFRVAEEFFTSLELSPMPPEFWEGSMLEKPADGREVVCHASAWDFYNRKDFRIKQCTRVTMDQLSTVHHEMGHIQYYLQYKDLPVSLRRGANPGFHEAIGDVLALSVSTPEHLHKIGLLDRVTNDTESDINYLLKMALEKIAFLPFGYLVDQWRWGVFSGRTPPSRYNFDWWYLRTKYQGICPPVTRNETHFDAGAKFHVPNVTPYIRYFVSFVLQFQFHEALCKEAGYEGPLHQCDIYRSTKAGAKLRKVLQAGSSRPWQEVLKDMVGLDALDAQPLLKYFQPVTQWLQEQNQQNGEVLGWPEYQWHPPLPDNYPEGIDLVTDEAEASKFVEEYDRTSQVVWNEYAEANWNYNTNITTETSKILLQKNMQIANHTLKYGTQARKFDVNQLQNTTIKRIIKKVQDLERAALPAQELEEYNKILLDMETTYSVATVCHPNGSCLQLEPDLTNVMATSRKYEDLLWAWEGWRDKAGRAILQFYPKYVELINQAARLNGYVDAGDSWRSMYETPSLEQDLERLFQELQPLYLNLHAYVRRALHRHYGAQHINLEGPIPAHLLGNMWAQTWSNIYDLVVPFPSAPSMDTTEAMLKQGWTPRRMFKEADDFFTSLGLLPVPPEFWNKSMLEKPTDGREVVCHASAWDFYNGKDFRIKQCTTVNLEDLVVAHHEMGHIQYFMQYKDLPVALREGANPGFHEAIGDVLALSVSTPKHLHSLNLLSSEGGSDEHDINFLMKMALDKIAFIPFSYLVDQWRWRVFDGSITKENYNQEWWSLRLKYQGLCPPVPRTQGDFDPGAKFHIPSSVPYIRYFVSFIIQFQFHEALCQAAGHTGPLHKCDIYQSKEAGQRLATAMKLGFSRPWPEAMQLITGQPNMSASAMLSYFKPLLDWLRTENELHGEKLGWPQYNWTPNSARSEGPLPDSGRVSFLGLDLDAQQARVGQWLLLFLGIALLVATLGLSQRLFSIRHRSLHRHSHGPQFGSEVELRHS

What is called Ki is the dissociation constant of the complex between target and ligand, obtained from inhibition or displacement. Low values mean higher affinity, high ones lower affinity. In assay [1], H-EWPRPQIPP-OH registered a Ki of 100 nM. Turning to `C[C@@](N)(Cc1cn(C(=O)OC2C3CC4CC(C3)CC2C4)c2ccccc12)C(=O)N[C@H](CC(=O)O)Cc1ccccc1` (stereo partly drawn), affinity in assay [2] was put at a Ki of 3 nM. `C[C@@](N)(Cc1cn(C(=O)OC2C3CC4CC(C3)CC2C4)c2ccccc12)C(=O)NC[C@H](NC(=O)CCC(=O)O)c1ccccc1` (stereo partly drawn): the inhibition constant Ki in assay [3] was 1.7 nM.
